# Assays:
# 3T3 fibroblasts = assay: In vitro cytocompatibility, WST-8 proliferation assay (Example 2); type: cell-based, mouse; settings: WST-8, days 1, 3 and 6
# Procedure: Prior to animal experiments, formulations 1-3 and formulations 4-5 were tested (all in the presence and absence of annealing chemistry) for cytocompatibility using immortalized and primary cells. The WST-8 proliferation assay was used to assess cell viability and compare to positive (vehicle) and negative (cytotoxic agent) controls. The formulations used are listed in Table 5 below, along with their characteristics.
# In vitro experiments were performed in well plate format. Cells were grown in culture media in adherent culture, and then exposed to either (i) hydrogel microgel particle suspensions, (ii) hydrogel microgel particle suspensions actively undergoing the annealing process, or (iii) the reaction conditions of the annealing process including soluble components but in the absence of hydrogel microgel particles. After exposure, cells were grown in adherent culture for […], measuring proliferation at 1, 3, and 6 days after exposure.
# 3T3 fibroblasts were grown to 90% confluent and then suspended in DMEM at 2.5×10^6 cells/mL. Then, 2 μL of cell suspension was mixed with MAP (see Table 1 for description of the different formulations tested for cytocompatibility) and added to a 96-well plate. […] Cell viability was then measured at 450 nm using WST-8 kit.
# [1] = Chemical annealing kinetics, elastic modulus over time (Instron); type: physicochemical
# Procedure: In the rat intradermal study (see Example 2), MAP was annealed using 0.1 mM PETMA (Pentaerythrivol tetras(2-mercaptoacetate)), a 4-thiol containing crosslinker. The thiol groups react with the free vinyl sulfones on the microgel particles in a thiol-ene Michael addition reaction. […] The optimization of the chemical annealing was performed with formulation 1-3. […] Briefly, gels initially formulated at a volume fraction of 100% was thoroughly mixed with the crosslinkers (0.1-0.2 mM) at different pHs, which led to diluting gels to 80%. The elastic modulus was measured at different time points using Instron.
# Then, the different HA-MAP formulations were annealed using the selected annealing agent at 0.2 mM at pH 7.4. […] Elastic modulus over time was measured using Instron.
# The final volume fraction for annealing was 80% for all annealing conditions.
SMILES,cytotoxic effect on cell viability (3T3 fibroblasts),"time to full annealing ([1]; annealing agent with formulations 1-3 gels, pH 7.4)",time before it is annealed ([1]; pH 6.5),"effect on kinetic of annealing and final stiffness ([1]; 0.3% wt, three batches of 4a, 0.2 mM PEG-dithiol 3.4 kDa, pH 7.4)"
"O=C(CS)OCC(COC(=O)CS)(COC(=O)CS)COC(=O)CS [PETMA, Pentaerythritol tetrakis(2-mercaptoacetate)]",dose dependent cytotoxic effect,≤ 5 min,< 10 min,
CCN(CC)CC(=O)Nc1c(C)cccc1C [lidocaine],,,,reduces the final stiffness after annealing and slightly slows down the reaction
